From patent US11339161B2, “Triazolo pyridines as modulators of gamma-secretase” (Boehringer Ingelheim International GmbH, priority 2017, dated 2022)
Read-outs that look alike come from different tables or passages of the source.

Target: T1, AURKA (Aurora A) (Homo sapiens, UniProt O14965)
T1 sequence (O14965 1-403): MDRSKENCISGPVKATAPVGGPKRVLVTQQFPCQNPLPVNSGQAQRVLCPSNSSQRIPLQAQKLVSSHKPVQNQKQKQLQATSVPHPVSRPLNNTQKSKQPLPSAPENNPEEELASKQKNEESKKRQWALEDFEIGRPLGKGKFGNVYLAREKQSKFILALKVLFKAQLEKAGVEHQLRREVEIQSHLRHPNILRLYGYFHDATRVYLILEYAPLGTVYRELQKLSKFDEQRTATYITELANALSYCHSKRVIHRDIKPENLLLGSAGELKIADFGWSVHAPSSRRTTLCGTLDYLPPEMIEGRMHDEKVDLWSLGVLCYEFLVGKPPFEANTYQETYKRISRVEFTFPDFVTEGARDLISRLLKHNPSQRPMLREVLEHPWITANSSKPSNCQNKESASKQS
Test: Z'-LYTE SelectScreen biochemical kinase assay AURKA (Aurora A)
Text: Thermo Fisher Scientific SelectScreen™ Biochemical Kinase Profiling Service Z′-LYTE™ Screening Protocol and Assay Conditions Assay Theory
The […] biochemical assay employs a fluorescence-based, coupled-enzyme format and is based on the differential sensitivity of phosphorylated and non-phosphorylated peptides to proteolytic cleavage. The peptide substrate is labeled with two fluorophores—one at each end—that make up a FRET pair. In the primary reaction, the kinase transfers the gamma-phosphate of ATP to a single tyrosine, serine or threonine residue in a synthetic FRET-peptide. In the secondary reaction, a site-specific protease recognizes and cleaves non-phosphorylated FRET-peptides. Phosphorylation of FRET-peptides suppresses cleavage by the Development Reagent. Cleavage disrupts FRET between the donor (i.e., coumarin) and acceptor (i.e., fluorescein) fluorophores on the FRET-peptide, whereas uncleaved, phosphorylated FRET-peptides maintain FRET. A ratiometric method, which calculates the ratio (Emission Ratio=Coumarin emission (445 nm)/Fluorescein emission (520 nm)) of donor emission to acceptor emission after excitation of the donor fluorophore at 400 nm, is used to quantitate reaction progress, as shown in the equation below. A significant benefit of this ratiometric method for quantitating reaction progress is the elimination of well-to-well variations in FRET-peptide concentration and signal intensities. As a result, the assay yields very high Z′-factor values (>0.7) at a low percent phosphorylation. Both cleaved and uncleaved FRET-peptides contribute to the fluorescence signals and therefore to the Emission Ratio. The extent of phosphorylation of the FRET-peptide can be calculated from the Emission Ratio. The Emission Ratio will remain low if the FRET-peptide is phosphorylated (i.e., no kinase inhibition) and will be high if the FRET-peptide is non-phosphorylated (i.e., kinase inhibition).
The Test Compounds are screened in 1% DMSO (final) in the well. For 10 point titrations, 3-fold serial dilutions are conducted from the starting concentration of the customer's choosing.
All Peptide/Kinase Mixtures are diluted to a 2× working concentration in the appropriate Kinase Buffer (see section Kinase Specific Assay Conditions for a complete description).
All ATP Solutions are diluted to a 4× working concentration in Kinase Buffer (50 mM HEPES pH 7.5, 0.01% BRIJ-35, 10 mM MgCl2, 1 mM EGTA). ATP Km apparent is previously determined using a Z″-LYTE assay.
The Development Reagent is diluted in Development Buffer (see section Kinase-Specific Assay Conditions—Direct and Cascade for a complete description).
Bar-coded Corning, low volume NBS, black 384-well plate (Corning Cat. #4514) • 1. 100 nL—100× Test Compound in 100% DMSO • 2. 2.4 μL—Kinase buffer • 3. 5 μL—2× Peptide/Kinase Mixture • 4. 2.5 μL—4×ATP Solution • 5. 30—second plate shake • 6. 60—minute Kinase Reaction incubation at room temperature • 7. 5 μL—Development Reagent Solution • 8. 30—second plate shake • 9. 60—minute Development Reaction incubation at room temperature • 10. Read on fluorescence plate reader and analyze the data Z′-LYTE Assay Controls
SelectScreen Kinase Profiling Service uses XLfit from IDBS. The dose response curve is curve fit to model number 205 (sigmoidal dose-response model).
The 2×AURKA (Aurora A)/Ser/Thr 01 mixture is prepared in 50 mM HEPES pH 7.5, 0.01% BRIJ-35, 10 mM MgCl2, 1 mM EGTA. The final 10 μL Kinase Reaction consists of 0.91-8.56 ng AURKA (Aurora A) and 2 μM Ser/Thr 01 in 50 mM HEPES pH 7.5, 0.01% BRIJ-35, 10 mM MgCl2, 1 mM EGTA. After the 1 hour Kinase Reaction incubation, 5 μL of a 1:4096 dilution of Development Reagent A is added.

[1] = 10 μmolar compound concentration, ATP at Km app, read-out: AURKA (Aurora A) inhibition
[2] = read-out: % Inhibition mean AURKA (Aurora A)

inhibition at 10 µM [1] [%]	inhibition at 10 µM [2] [%]	inhibition at 10 µM (read-out: % Inhibition mean) [%]	SMILES
40 to 80	42	–	CCn1ncc2c1CCC(Nc1nc3c(-c4ccc(OC)nc4)cccn3n1)C2 (stereo not drawn) [Example 71, (1-Ethyl-4,5,6,7-tetrahydro-1H-indazol-5-yl)-[8-(6-methoxy-pyridin-3-yl)-[1,2,4]triazolo[1,5-a]pyridine-2-yl]-amine]
< 40	10	–	CCCCCn1ncc2c1CCC(Nc1nc3c(-c4ccc(F)cc4C)cccn3n1)C2 (stereo not drawn) [Example 47, [8-(4-fluoro-2-methyl-phenyl)-[1,2,4]triazolo[1,5-a]pyridine-2-yl]-(1-pentyl-4,5,6,7-tetrahydro-1H-indazol-5-yl)-amine]
< 40	-14	–	CCn1nc(Cl)c2c1CCC(Nc1nc3c(-c4ccc(F)cc4C)cccn3n1)C2 (stereo not drawn) [Example 48, (3-Chloro-1-ethyl-4,5,6,7-tetrahydro-1H-indazol-5-yl)-[8-(4-fluoro-2-methyl-phenyl)-[1,2,4]triazolo[1,5-a]pyridine-2-yl]-amine]
< 40	4	–	Cc1cc(F)ccc1-c1cccn2nc(NC3CCc4c(cnn4C)C3)nc12 (stereo not drawn) [Example 10, [8-(4-fluoro-2-methyl-phenyl)-[1,2,4]triazolo[1,5-a]pyridine-2-yl]-(1-methyl-4,5,6,7-tetrahydro-1H-indazol-5-yl)-amine]
< 40	-21	–	CCn1ncc2c1CCC(Nc1nc3c(-c4cccc(Cl)c4)cccn3n1)C2 (stereo not drawn) [Example 59, [8-(3-Chloro-phenyl)-[1,2,4]triazolo[1,5-a]pyridine-2-yl]-(1-ethyl-4,5,6,7-tetrahydro-1H-indazol-5-yl)-amine]
< 40	-13	–	Cc1cc(F)ccc1-c1cccn2nc(NC3CCc4c(cnn4CC(C)C)C3)nc12 (stereo not drawn) [Example 45, [8-(4-fluoro-2-methyl-phenyl)-[1,2,4]triazolo[1,5-a]pyridine-2-yl]-(1-isobutyl-4,5,6,7-tetrahydro-1H-indazol-5-yl)-amine]
< 40	14	–	CCCCn1ncc2c1CCC(Nc1nc3c(-c4ccc(F)cc4C)cccn3n1)C2 (stereo not drawn) [Example 46, [8-(4-fluoro-2-methyl-phenyl)-[1,2,4]triazolo[1,5-a]pyridine-2-yl]-(1-butyl-4,5,6,7-tetrahydro-1H-indazol-5-yl)-amine]
< 40	15	–	CCn1ncc2c1CCC(Nc1nc3c(-c4ccc(F)cc4)cccn3n1)C2 (stereo not drawn) [Example 55, (1-Ethyl-4,5,6,7-tetrahydro-1H-indazol-5-yl)-[8-(4-fluoro-phenyl)-[1,2,4]triazolo[1,5-a]pyridine-2-yl]-amine]
40 to 80	51	–	CCn1ncc2c1CCC(Nc1nc3c(-c4cncc(OC)c4)cccn3n1)C2 (stereo not drawn) [Example 70, (1-Ethyl-4,5,6,7-tetrahydro-1H-indazol-5-yl)-[8-(5-methoxy-pyridin-3-yl)-[1,2,4]triazolo[1,5-a]pyridine-2-yl]-amine]
> 80	–	98	CC1(C)NC(=O)c2ccc(Nc3nc4c(-c5cccc(F)c5)cccn4n3)cc21 [Cpd. 302 in WO09155551, reference compound]
< 40	13	–	Cc1cc(F)ccc1-c1cccn2nc(NC3CCc4cnn(C)c4C3)nc12 (stereo not drawn) [Example 40, [8-(4-Fluoro-2-methyl-phenyl)-[1,2,4]triazolo[1,5-a]pyridine-2-yl]-(1-methyl-4,5,6,7-tetrahydro-1H-indazol-6-yl)-amine]
40 to 80	57	–	Cc1cc(F)ccc1-c1cccn2nc(Nc3ccc4c(cnn4C)c3)nc12 [Example 9, [8-(4-fluoro-2-methyl-phenyl)-[1,2,4]triazolo[1,5-a]pyridine-2-yl]-(1-methyl-1H-indazol-5-yl)-amine]
< 40	-14	–	CCn1ncc2c1C(C)CC(Nc1nc3c(-c4cc(F)c(F)c(F)c4)cccn3n1)C2 (stereo not drawn) [Example 49, (1-Ethyl-7-methyl-4,5,6,7-tetrahydro-1H-indazol-5-yl)-[8-(3,4,5-trifluoro-phenyl)-[1,2,4]triazolo[1,5-a]pyridine-2-yl]-amine]
< 40	7	–	CCn1ncc2c1CCC(Nc1nc3c(-c4ccccc4)cccn3n1)C2 (stereo not drawn) [Example 57, (1-Ethyl-4,5,6,7-tetrahydro-1H-indazol-5-yl)-(8-phenyl-[1,2,4]triazolo[1,5-a]pyridine-2-yl)-amine]
< 40	-17	–	CCCn1ncc2c1CCC(Nc1nc3c(-c4ccc(F)cc4C)cccn3n1)C2 (stereo not drawn) [Example 43, [8-(4-fluoro-2-methyl-phenyl)-[1,2,4]triazolo[1,5-a]pyridine-2-yl]-(1-propyl-4,5,6,7-tetrahydro-1H-indazol-5-yl)-amine]
< 40	7	–	Cc1cc(F)ccc1-c1cccn2nc(NC3CCc4c(cnn4C(C)C)C3)nc12 (stereo not drawn) [Example 44, [8-(4-fluoro-2-methyl-phenyl)-[1,2,4]triazolo[1,5-a]pyridine-2-yl]-(1-isopropyl-4,5,6,7-tetrahydro-1H-indazol-5-yl)-amine]
< 40	18	–	CCc1nn(C)c2c1CCC(Nc1nc3c(-c4ccc(F)cc4C)cccn3n1)C2 (stereo not drawn) [Example 54, (3-Ethyl-1-methyl-4,5,6,7-tetrahydro-1H-indazol-6-yl)-[8-(4-fluoro-2-methyl-phenyl)-[1,2,4]triazolo[1,5-a]pyridine-2-yl]-amine]
< 40	8	–	CCn1nnc2c1CCC(Nc1nc3c(-c4ccc(F)cc4C)cccn3n1)C2 (stereo not drawn) [Example 51, (1-Ethyl-4,5,6,7-tetrahydro-1H-benzotriazol-5-yl)-[8-(4-fluoro-2-methyl-phenyl)-[1,2,4]triazolo[1,5-a]pyridine-2-yl]-amine]
< 40	-8	–	CCn1ncc2c1CC[C@@H](Nc1nc3c(-c4ccc(F)c(Cl)c4)cccn3n1)C2 [Example R-61, (R)-[8-(3-Chloro-4-fluoro-phenyl)-[1,2,4]triazolo[1,5-a]pyridine-2-yl]-(1-ethyl-4,5,6,7-tetrahydro-1H-indazol-5-yl)-amine]
< 40	27	–	CCn1ncc2c1CCC(Nc1nc3c(-c4ccccc4C)cccn3n1)C2 (stereo not drawn) [Example 56, (1-Ethyl-4,5,6,7-tetrahydro-1H-indazol-5-yl)-[8-(2-methyl-phenyl)-[1,2,4]triazolo[1,5-a]pyridine-2-yl]-amine]
< 40	39	–	CCn1ncc2c1CCC(Nc1nc3c(-c4cnccc4OC)cccn3n1)C2 (stereo not drawn) [Example 68, (1-Ethyl-4,5,6,7-tetrahydro-1H-indazol-5-yl)-[8-(4-methoxy-pyridin-3-yl)-[1,2,4]triazolo[1,5-a]pyridine-2-yl]-amine]
